Experimental findings from ChEMBL document CHEMBL1141172, “Fragment-based lead discovery using X-ray crystallography” (J Med Chem, 2005) are described below.

This assay deals with T1, Tyrosine-protein phosphatase non-receptor type 1 (Homo sapiens) (UniProt P18031).
T1 sequence (whole entry): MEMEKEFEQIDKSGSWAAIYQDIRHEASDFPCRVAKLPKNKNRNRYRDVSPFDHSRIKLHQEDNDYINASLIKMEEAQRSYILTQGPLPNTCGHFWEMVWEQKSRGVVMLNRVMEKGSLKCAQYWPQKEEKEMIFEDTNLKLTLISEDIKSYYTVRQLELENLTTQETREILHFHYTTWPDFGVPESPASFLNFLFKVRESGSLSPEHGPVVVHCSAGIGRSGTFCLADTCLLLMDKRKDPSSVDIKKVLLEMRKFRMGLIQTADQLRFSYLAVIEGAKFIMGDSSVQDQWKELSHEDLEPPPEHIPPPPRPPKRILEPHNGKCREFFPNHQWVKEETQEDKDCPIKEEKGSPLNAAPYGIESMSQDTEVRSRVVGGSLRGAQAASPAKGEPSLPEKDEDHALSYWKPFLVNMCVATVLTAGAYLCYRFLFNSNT
In words: Binding affinity for protein tyrosine phosphatase 1B.

The molecule `NCc1ccc(NC(=O)C(=O)O)cc1` came in with an Affinity of 86 µM.
